Reference: the NIST ThermoML archive (doi:10.1016/j.jct.2005.08.009)

Experiment: xn = mol fraction of the nth substance listed
Details: 101 kPa, Liquid

CC#N [acetonitrile] + O
Details	mass density, 298.15 K [kg/m3]	mass density, 303.15 K [kg/m3]	mass density, 308.15 K [kg/m3]	mass density, 313.15 K [kg/m3]	mass density, 318.15 K [kg/m3]	viscosity, 298.15 K [mPa·s]	viscosity, 303.15 K [mPa·s]	viscosity, 308.15 K [mPa·s]	viscosity, 313.15 K [mPa·s]	viscosity, 318.15 K [mPa·s]
x1 = 0.051	978.98	975.65	972.14	969.11	965.89	0.9849	0.8799	0.7964	0.7208	0.6522
x1 = 0.1169	954.73	951.24	947.08	943.32	939.05	0.9567	0.8628	0.7842	0.7155	0.6524
x1 = 0.1971	924.74	921.1	916.51	912.69	908.03	0.8743	0.7931	0.7218	0.6628	0.6069
x1 = 0.2728	900.14	896.29	891.33	887.31	882.39	0.7891	0.7152	0.6502	0.5951	0.5462
x1 = 0.3601	876.35	872.19	866.86	862.67	857.41	0.6953	0.6298	0.5737	0.5266	0.4853
x1 = 0.4417	857.17	852.79	846.98	842.61	837.06	0.6061	0.5574	0.5121	0.4744	0.4435
x1 = 0.5204	841.27	836.65	830.76	826.18	820.41	0.5387	0.4972	0.4606	0.4317	0.4089
x1 = 0.6012	826.9	822.15	816.07	811.38	805.44	0.4802	0.4473	0.4189	0.3959	0.3783
x1 = 0.6671	816.3	811.49	805.22	800.45	794.36	0.4415	0.4138	0.3902	0.3698	0.3556
x1 = 0.7398	805.64	800.78	794.39	789.71	783.69	0.4064	0.3831	0.3633	0.3471	0.3353
x1 = 0.8253	794.81	789.89	783.52	778.81	772.68	0.3722	0.3545	0.3386	0.3256	0.3159
x1 = 0.886	787.78	782.84	776.44	771.75	765.67	0.3561	0.3405	0.3259	0.3142	0.3039
x1 = 0.9389	782.44	777.52	771.07	766.36	760.29	0.3478	0.333	0.3173	0.3061	0.2963
x1 = 0.999	–	–	–	–	–	0.3418	0.3281	0.313	0.301	0.29
x1 = 1	776.69	771.89	765.46	760.86	754.76	0.3417	0.328	0.3129	0.3009	0.2899
